From ChEMBL document CHEMBL4311993, “Structure-activity relationship study of NPP1 inhibitors based on uracil-N1-(methoxy)ethyl-β-phosphate scaffold” (Eur J Med Chem, 2019)
Active and inactive are the calls of the source.

Legend:
[1] = molecular target: P2Y purinoceptor 2 (Homo sapiens) (UniProt P41231); experiment: Agonist activity at human P2Y2 receptor expressed in AD293 cells assessed as induction of IP1 accumulation at 0.1 to 1 uM; type: functional, cell-based
[2] = molecular target: P2Y purinoceptor 6 (Homo sapiens) (UniProt Q15077); experiment: Agonist activity at human P2Y6 receptor expressed in AD293 cells assessed as inositol-1-phosphate accumulation at 100 uM; type: functional, cell-based
Sequence of P2Y purinoceptor 6 (Homo sapiens) (Q15077 whole entry): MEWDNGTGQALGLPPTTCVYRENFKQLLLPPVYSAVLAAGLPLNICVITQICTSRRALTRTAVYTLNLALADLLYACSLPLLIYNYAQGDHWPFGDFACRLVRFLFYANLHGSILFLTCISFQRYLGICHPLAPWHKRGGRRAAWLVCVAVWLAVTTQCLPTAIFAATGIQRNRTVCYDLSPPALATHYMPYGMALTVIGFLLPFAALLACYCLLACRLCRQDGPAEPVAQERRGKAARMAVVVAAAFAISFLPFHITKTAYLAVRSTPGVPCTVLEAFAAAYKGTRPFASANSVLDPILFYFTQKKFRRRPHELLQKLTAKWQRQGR

[3] = molecular target: T1, Ectonucleoside triphosphate diphosphohydrolase 2 (Homo sapiens) (UniProt Q9Y5L3); experiment: Inhibition of human NTPdase-2 expressed in COS7 cell membranes at 100 uM using ATP as substrate preincubated for 3 mins followed by susbtrate addition and measured after 10 mins by malachite green dye based method
T1 sequence (whole entry): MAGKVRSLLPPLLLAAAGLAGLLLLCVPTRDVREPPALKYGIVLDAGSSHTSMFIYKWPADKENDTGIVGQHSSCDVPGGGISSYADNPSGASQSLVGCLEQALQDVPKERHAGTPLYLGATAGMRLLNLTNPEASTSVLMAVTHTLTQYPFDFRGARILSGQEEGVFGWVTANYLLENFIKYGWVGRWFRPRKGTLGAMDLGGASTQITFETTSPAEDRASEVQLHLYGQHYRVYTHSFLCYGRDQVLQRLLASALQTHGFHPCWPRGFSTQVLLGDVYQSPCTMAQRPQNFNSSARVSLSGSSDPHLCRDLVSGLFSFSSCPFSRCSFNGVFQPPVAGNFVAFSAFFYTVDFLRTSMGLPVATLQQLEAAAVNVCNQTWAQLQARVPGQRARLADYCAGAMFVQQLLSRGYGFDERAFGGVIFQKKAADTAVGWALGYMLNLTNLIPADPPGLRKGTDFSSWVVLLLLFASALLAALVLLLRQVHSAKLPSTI

[4] = molecular target: P2Y purinoceptor 6 (Homo sapiens) (UniProt Q15077); experiment: Antagonist activity at human P2Y6 receptor expressed in AD293 cells assessed as inhibition of UDP-induced inositol-1-phosphate accumulation at 0.1 to 100 uM; type: functional, cell-based
[5] = molecular target: T2, Ectonucleoside triphosphate diphosphohydrolase 1 (Homo sapiens) (UniProt P49961); experiment: Inhibition of human NTPdase-1 expressed in COS7 cell membranes at 100 uM using ATP as substrate preincubated for 3 mins followed by susbtrate addition and measured after 10 mins by malachite green dye based method
T2 sequence (whole entry): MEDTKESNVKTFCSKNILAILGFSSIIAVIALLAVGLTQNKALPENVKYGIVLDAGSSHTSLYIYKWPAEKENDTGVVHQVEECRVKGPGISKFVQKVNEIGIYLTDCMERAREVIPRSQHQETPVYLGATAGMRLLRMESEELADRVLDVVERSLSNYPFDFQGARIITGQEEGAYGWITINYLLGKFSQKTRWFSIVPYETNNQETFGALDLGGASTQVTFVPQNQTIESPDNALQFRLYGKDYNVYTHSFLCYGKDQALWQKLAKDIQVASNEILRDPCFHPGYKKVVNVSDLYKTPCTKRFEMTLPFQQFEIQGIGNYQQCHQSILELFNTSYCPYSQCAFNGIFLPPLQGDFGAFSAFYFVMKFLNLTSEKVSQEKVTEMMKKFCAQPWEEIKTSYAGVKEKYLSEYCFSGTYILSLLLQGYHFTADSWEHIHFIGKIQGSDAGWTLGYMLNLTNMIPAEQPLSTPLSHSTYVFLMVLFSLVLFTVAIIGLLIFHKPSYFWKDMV

[6] = molecular target: P2Y purinoceptor 4 (Homo sapiens) (UniProt P51582); experiment: Agonist activity at human P2Y4 receptor expressed in AD293 cells assessed as inositol-1-phosphate accumulation at 0.1 to 100 uM; type: functional, cell-based
Sequence of P2Y purinoceptor 4 (Homo sapiens) (P51582 whole entry): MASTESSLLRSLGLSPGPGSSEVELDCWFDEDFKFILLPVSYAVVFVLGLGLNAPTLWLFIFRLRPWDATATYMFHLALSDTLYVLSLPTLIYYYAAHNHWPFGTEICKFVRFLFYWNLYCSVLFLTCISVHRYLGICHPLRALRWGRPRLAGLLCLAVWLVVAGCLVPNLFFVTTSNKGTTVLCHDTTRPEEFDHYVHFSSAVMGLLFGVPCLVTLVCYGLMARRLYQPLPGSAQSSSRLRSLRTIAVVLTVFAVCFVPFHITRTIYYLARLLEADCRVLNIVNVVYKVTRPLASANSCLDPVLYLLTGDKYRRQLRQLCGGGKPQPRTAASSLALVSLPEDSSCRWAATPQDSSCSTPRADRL

[7] = molecular target: T3, Ectonucleoside triphosphate diphosphohydrolase 8 (Homo sapiens) (UniProt Q5MY95); experiment: Inhibition of human NTPdase-8 expressed in COS7 cell membranes at 100 uM using ATP as substrate preincubated for 3 mins followed by susbtrate addition and measured after 10 mins by malachite green dye based method
T3 sequence (whole entry): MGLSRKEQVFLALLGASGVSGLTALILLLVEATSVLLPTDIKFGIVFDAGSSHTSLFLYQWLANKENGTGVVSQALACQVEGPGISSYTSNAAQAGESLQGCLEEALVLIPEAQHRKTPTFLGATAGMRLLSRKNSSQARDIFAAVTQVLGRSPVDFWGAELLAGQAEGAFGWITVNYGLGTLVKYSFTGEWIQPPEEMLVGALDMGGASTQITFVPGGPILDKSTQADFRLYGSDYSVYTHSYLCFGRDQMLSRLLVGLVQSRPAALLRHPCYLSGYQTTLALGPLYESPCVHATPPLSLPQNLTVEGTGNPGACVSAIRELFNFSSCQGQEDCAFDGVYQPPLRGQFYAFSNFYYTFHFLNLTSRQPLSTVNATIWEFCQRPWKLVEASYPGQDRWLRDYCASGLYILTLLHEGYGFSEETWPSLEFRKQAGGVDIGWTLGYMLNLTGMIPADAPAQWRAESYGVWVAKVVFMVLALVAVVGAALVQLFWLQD

[8] = molecular target: T4, Ectonucleoside triphosphate diphosphohydrolase 3 (Homo sapiens) (UniProt O75355); experiment: Inhibition of human NTPdase-3 expressed in COS7 cell membranes at 100 uM using ATP as substrate preincubated for 3 mins followed by susbtrate addition and measured after 10 mins by malachite green dye based method
T4 sequence (whole entry): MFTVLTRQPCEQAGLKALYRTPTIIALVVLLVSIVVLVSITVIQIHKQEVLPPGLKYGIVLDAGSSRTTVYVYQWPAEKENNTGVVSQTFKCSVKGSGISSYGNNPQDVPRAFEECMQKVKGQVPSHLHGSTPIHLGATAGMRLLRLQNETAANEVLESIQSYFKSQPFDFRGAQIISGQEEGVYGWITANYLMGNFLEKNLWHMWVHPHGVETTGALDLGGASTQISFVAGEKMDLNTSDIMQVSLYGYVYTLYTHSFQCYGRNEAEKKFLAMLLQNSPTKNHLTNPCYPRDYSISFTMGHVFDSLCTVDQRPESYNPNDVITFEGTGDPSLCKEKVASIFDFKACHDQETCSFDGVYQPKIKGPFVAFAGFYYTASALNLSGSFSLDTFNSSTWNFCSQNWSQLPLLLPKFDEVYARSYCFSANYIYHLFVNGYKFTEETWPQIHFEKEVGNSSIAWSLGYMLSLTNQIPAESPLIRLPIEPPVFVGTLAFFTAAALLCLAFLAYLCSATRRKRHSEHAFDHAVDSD

[9] = molecular target: P2Y purinoceptor 4 (Homo sapiens) (UniProt P51582); experiment: Antagonist activity at human P2Y4 receptor expressed in AD293 cells assessed as inhibition of UTP-induced inositol-1-phosphate accumulation at 0.1 to 100 uM; type: functional, cell-based

Sequence of P2Y purinoceptor 2 (Homo sapiens) (P41231 whole entry): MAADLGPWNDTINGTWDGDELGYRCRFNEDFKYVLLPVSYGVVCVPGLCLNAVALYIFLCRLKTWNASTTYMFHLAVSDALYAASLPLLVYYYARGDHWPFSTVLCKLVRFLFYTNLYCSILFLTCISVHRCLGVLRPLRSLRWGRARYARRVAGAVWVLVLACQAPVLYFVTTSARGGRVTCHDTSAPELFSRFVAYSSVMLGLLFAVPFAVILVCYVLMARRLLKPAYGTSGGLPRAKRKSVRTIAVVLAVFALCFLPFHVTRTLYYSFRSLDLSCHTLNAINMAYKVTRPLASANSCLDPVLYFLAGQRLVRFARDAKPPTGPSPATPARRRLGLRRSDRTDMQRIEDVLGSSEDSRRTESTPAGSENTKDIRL

SMILES: O=c1ccn(COCCOP(=O)(O)CP(=O)(O)O)c(=O)[nH]1
- Activity [1]: inactive
- Activity [2]: Active
- inhibition [3]: Active
- inhibition [4]: inactive
- inhibition call at 100 uM (active/not active) [5]: Active
- Activity [6]: inactive
- Inhibition call (active/not active) [7]: Active
- inhibition [8]: Active
- inhibition [9]: inactive

SMILES: O=c1ccn(COCCO[PH](=O)O)c(=O)[nH]1
- Activity [1]: inactive
- inhibition [3]: inactive
- inhibition [4]: inactive
- inhibition call at 100 uM (active/not active) [5]: inactive
- Activity [6]: inactive
- Inhibition call (active/not active) [7]: inactive
- inhibition [8]: inactive
- inhibition [9]: inactive

SMILES: O=c1ccn(COCCOP(=O)(O)O)c(=O)[nH]1
- inhibition [3]: inactive
- inhibition [4]: inactive
- inhibition call at 100 uM (active/not active) [5]: inactive
- Activity [6]: inactive
- Inhibition call (active/not active) [7]: inactive
- inhibition [8]: inactive
- inhibition [9]: inactive

SMILES: O=c1ccn(COCCOP(=S)(S)OP(=O)(O)CP(=O)(O)O)c(=O)[nH]1 (stereo not drawn)
- Activity [2]: Active
- inhibition [3]: Active
- inhibition [4]: inactive
- inhibition call at 100 uM (active/not active) [5]: Active
- Activity [6]: inactive
- Inhibition call (active/not active) [7]: Active
- inhibition [8]: Active
- inhibition [9]: inactive

SMILES: O=c1ccn(COCCOP(=O)(O)C(Cl)(Cl)P(=O)(O)O)c(=O)[nH]1
- Activity [1]: inactive
- inhibition [3]: Active
- inhibition [4]: inactive
- inhibition call at 100 uM (active/not active) [5]: Active
- Activity [6]: inactive
- Inhibition call (active/not active) [7]: Active
- inhibition [8]: Active
- inhibition [9]: inactive

SMILES: O=c1ccn(COCCOP(=S)(S)OP(=O)(O)C(Cl)(Cl)P(=O)(O)O)c(=O)[nH]1 (stereo not drawn)
- Activity [2]: Active
- inhibition [3]: Active
- inhibition [4]: inactive
- inhibition call at 100 uM (active/not active) [5]: Active
- Activity [6]: inactive
- Inhibition call (active/not active) [7]: Active
- inhibition [8]: Active
- inhibition [9]: inactive
